In patent publication US20250129130A1, “USE OF VARIOVORAX MICROBES AS AN ALTERNATIVE TREATMENT FOR COCCIDIOSIS” (ZIVO BIOSCIENCE, INC., priority 2020, published 2025):

Key:
[1] = tested on: E. acervuline, E. maxima, E. tenella oocysts; test: Study No. 3: floor-pen broiler performance and digestive health under cocci-challenge + built-up litter; conditions: Coban 90 g/ton, Inventive Compound 125 g/ton
[2] = target: T1, TLR4 (Homo sapiens, UniProt O00206+Q9Y6Y9); conditions: Phase 2 multiple sclerosis trial, versus placebo; cited from earlier work
T1 sequence (O00206 24-839): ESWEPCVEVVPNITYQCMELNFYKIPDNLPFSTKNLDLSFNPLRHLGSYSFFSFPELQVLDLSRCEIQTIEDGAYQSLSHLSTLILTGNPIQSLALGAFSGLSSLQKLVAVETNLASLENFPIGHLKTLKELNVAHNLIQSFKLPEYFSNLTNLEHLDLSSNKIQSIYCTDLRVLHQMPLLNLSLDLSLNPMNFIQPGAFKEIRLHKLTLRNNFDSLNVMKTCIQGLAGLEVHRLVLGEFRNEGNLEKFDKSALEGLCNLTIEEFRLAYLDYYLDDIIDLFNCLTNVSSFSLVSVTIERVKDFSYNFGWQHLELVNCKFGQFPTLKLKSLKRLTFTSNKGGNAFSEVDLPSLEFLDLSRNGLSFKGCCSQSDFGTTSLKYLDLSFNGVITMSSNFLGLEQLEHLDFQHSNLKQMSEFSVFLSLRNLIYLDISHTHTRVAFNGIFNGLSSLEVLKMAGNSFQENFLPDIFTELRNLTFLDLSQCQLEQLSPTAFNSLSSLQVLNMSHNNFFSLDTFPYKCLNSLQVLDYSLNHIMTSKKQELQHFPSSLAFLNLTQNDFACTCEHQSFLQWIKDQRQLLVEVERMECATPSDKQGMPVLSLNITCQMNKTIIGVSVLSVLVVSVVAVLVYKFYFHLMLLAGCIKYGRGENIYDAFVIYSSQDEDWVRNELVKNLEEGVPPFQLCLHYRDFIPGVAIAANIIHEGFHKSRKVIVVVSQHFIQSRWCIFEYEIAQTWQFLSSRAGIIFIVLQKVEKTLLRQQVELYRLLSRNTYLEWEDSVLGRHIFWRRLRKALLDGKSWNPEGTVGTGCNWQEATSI
T1 sequence (Q9Y6Y9 17-160 limits assumed): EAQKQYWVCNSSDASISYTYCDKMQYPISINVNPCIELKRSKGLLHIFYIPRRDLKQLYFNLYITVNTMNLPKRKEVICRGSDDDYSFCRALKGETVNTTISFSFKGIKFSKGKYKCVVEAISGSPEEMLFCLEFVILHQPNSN

[3] = target: T1, TLR4; conditions: severe sepsis; cited from earlier work
[4] = tested on: mixed E. acervulina, E. maxima, and E. tenella coccidial inoculum; test: Study No. 1: anticoccidial efficacy in feed, battery-cage broilers, mixed Eimeria challenge; type: in vivo, male broiler chickens; conditions: Salinomycin 60 g/t
From the text: A non-limiting example of a method for the improvement of growth efficiency in broiler chickens exposed to a coccidiosis disease challenge is set forth.
The study animals were chickens, specifically male broiler chickens. Day of hatch male broiler chicks were obtained. At the hatchery, the birds were sexed. Sets of ten chicks were randomly selected, group weighed and placed into cages. The number and disposition of all birds not used for allocation were documented. No birds were replaced during the course of the study. There were 80 birds per treatment group.
The poultry cages were blocked by location in the battery with block size equal to treatments. The study began when the birds, specifically broiler chickens, were placed on the day of hatch (DOT 0) at which time they were allocated to the experimental cages. Only healthy birds were selected. At placement the birds were fed the treatment feeds. Thermostatically controlled gas furnace/air conditioner maintained uniform temperature in the cages.
An un-medicated commercial type chicken starter compounded with feedstuffs commonly used in the United States was formulated. The diet was an all-vegetable feed having no antibiotics, organic acid, NSP enzyme, or direct fed microbial. This ration was fed ad libitum from the date of chick arrival until Day 28 of the study. The diet formulation was included in the source data. Experimental treatment feeds were prepared from this basal starter feed. Quantities of all basal feed and test articles used to prepare treatment batches were documented.
All birds were weighed by cage on DOT 0, 14, 20 and 28. Feed was weighed in on DOT 0. The remaining feed was weighed on DOT 14, 20, and 28.
Coccidial oocysts inoculation procedures were carried out. On Day 14 of the study, all birds except T1 orally received a mixed E. acervulina, E. maxima, and E. tenella coccidial inoculum diluted to a 1.0 ml volume (p.o.). Inoculum level attempted to produce a moderate challenge.
On DOT 20, a select number of birds from each cage were selected, sacrificed, weighed, and examined for the degree of presence of coccidia lesions. The Johnson and Reid (1970) method of coccidiosis lesion scoring was used to score the infected region(s) of the intestine. The scoring was based on a 0 to 4 score, with 0 being normal and 4 being the most severe. Also on Day 20 mixed feces were collected from each cage. Each sample was examined for the number of oocysts per gram fecal material by fecal floatation.
STUDY NO. 1—ANALYSIS METHODOLOGY Means for cage weight gain, feed consumption, feed conversion, lesion scores, oocyst counts (OPGs), and mortality were calculated.

[5] = DAY 0-20, infected Day 14, Inventive Compound 0.551%
[6] = DAY 0-28, infected Day 14, Inventive Compound 0.551%
[7] = DAY 14 (before challenge), Inventive Compound 0.551% in feed
[8] = DAY 14-20, infected Day 14, Inventive Compound 0.551%
[9] = DAY 14-28, infected Day 14, Inventive Compound 0.551%
[10] = DOT 20, Johnson and Reid 0 to 4 score, Inventive Compound 0.551%
[11] = Day 20 mixed feces, fecal floatation, Inventive Compound 0.551%

SMILES: CC[C@@]1([C@@H]2O[C@@H]([C@H]3O[C@@](O)(CO)[C@H](C)C[C@@H]3C)C[C@@H]2C)CC[C@H]([C@]2(C)CC[C@]3(C[C@H](O)[C@@H](C)[C@@H]([C@@H](C)[C@@H](OC)[C@H](C)C(=O)O)O3)O2)O1 [Coban, Monensin, USP]
- % Mortality ([1]; DAY 0-14, challenge Day 7): 0.833a %
- Avg Body Weight (g) ([1]; DAY 0-14, challenge Day 7): 496.13a g
- FCR ([1]; DAY 0-14, challenge Day 7): 1.112ab
- Feed Intake (g/bird/day) ([1]; DAY 0-14, challenge Day 7): 34.680b g/bird/day
- % Mortality ([1]; DAY 0-21): 1.563a %
- Avg Body Weight (g) ([1]; DAY 0-21): 951.80a g
- FCR ([1]; DAY 0-21): 1.151a
- Feed Intake (g/bird/day) ([1]; DAY 0-21): 54.811a g/bird/day
- % Mortality ([1]; DAY 0-28): 1.563a %
- Avg Body Weight (g) ([1]; DAY 0-28): 1535.00a g
- FCR ([1]; DAY 0-28): 1.387a
- Feed Intake (g/bird/day) ([1]; DAY 0-28): 78.960c g/bird/day
- % Mortality ([1]; DAY 15-21): 0.729a %
- Avg Body Weight (g) ([1]; DAY 15-21): 445.167a g
- FCR ([1]; DAY 15-21): 1.244ab
- Feed Intake (g/bird/day) ([1]; DAY 15-21): 77.988a g/bird/day
- % Mortality ([1]; DAY 22-28): 0.000a %
- Avg Body Weight (g) ([1]; DAY 22-28): 583.217a g
- FCR ([1]; DAY 22-28): 1.825a
- Feed Intake (g/bird/day) ([1]; DAY 22-28): 151.410c g/bird/day
- DAY 14 Avg Lesion Score Ceca ([1]; Day 14): 0.292a
- DAY 14 Avg Lesion Score Duodenum ([1]; Day 14): 0.375b
- DAY 28 Avg Lesion Score Ceca ([1]; Day 28): 0.229a
- DAY 28 Avg Lesion Score Duodenum ([1]; Day 28): 0.208a

SMILES: CC(C)C(=O)c1c(C(C)C)nn2ccccc12 [Ibudilast]
- rates of gastrointestinal side effects, headache, and depression [2]: higher rates

SMILES: CCOC(=O)C1=CCCC[C@H]1S(=O)(=O)Nc1ccc(F)cc1Cl [Resatorvid]
- mortality in Phase 3 clinical trials [3]: failed to reduce mortality

SMILES: CC[C@@H](C(=O)[C@@H](C)[C@@H](O)[C@H](C)[C@@H]1O[C@@H]([C@@H](CC)C(=O)O)CC[C@@H]1C)[C@H]1O[C@]2(C=C[C@@H](O)[C@]3(CC[C@@](C)([C@H]4CC[C@](O)(CC)[C@H](C)O4)O3)O2)[C@H](C)C[C@@H]1C [Salinomycin]
- FCR [4, 5]: 1.597bc
- Feed Intake [4, 5]: 5.433a
- Wt. Gain [4, 5]: 0.360b
- FCR [4, 6]: 1.625bc
- Feed Intake [4, 6]: 5.918a
- Wt. Gain [4, 6]: 0.376b
- FCR [4, 7]: 1.156a
- Feed Intake [4, 7]: 2.384a
- Wt. Gain [4, 7]: 0.218a
- FCR [4, 8]: 1.744b
- Feed Intake [4, 8]: 3.049a
- Wt. Gain [4, 8]: 0.185b
- FCR [4, 9]: 1.766c
- Feed Intake [4, 9]: 3.534a
- Wt. Gain [4, 9]: 0.202b
- Lesion Scores Avg. [4, 10]: 1.3c
- Lesion Scores Eimeria acervulina [4, 10]: 2.1c
- Lesion Scores Eimeria maxima [4, 10]: 0.9c
- Lesion Scores Eimeria tenella [4, 10]: 0.7c
- Oocysts per Gram Fecal Material Avg. [4, 11]: 9722b
- Oocysts per Gram Fecal Material Eimeria acervulina [4, 11]: 4511a
- Oocysts per Gram Fecal Material Eimeria maxima [4, 11]: 484b
- Oocysts per Gram Fecal Material Eimeria tenella [4, 11]: 4727c
